Patent US4471131A, “Novel silyl esters of N-phosphonomethylglycine” (Monsanto Company, priority 1983, dated 1984)

Legend:
Assay in all cases: post-emergence herbicidal activity, greenhouse
Type in all cases: in vivo
Cocklebur = system: Cocklebur
From the text: (§1) A good grade of top soil is placed in aluminum pans having holes in the bottom and compacted to a depth of 0.95 to 1.27 cm. from the top of the pan. A predetermined number of seeds of each of several dicotyledonous and moncotyledonous annual plant species and/or vegetative propagules for the perennial plant species were placed on the soil and pressed into the soil surface. The seeds and/or vegetative propagules are covered with soil and leveled. The pans are then placed on a sand bench in the greenhouse and watered from below as needed. After the plants reach the desired age (two to three weeks), each pan, except for the control pans, is removed individually to a spraying chamber and sprayed by means of an atomizer at the rates noted. In the spray solution is an amount of an emulsifying agent mixture to give a spray solution or suspension which contains about 0.4% by weight of the emulsifier. The spray solution or suspension contains a sufficient amount of the candidate chemical in order to give application rates corresponding to those set forth in the tables. The pans were returned to the greenhouse and watered as before and the injury to the plants as compared to the control is observed at approximately two and four weeks and the results recorded. In the tables, WAT means "weeks after treatment."
(§2) The post-emergent herbicidal activity index used in Tables II and III is as follows:
(§3) The plant species utilized in these tests are identified by letter in accordance with the following legend: […]

Quackgrass = settings: Table II, formulated immediately prior to treatment
From the text: as §1, §2, §3

Panicum Spp = settings: Table III, 2 WAT
From the text: as §1, §2, §3

Pennsylvania Smartweed = system: Pennsylvania Smartweed
From the text: as §1, §2, §3

Downy Brome = system: Downy Brome
From the text: as §1, §2, §3

Hemp Sesbania = settings: Table III, 2 WAT
From the text: as §1, §2, §3

Canada Thistle = settings: Table II, formulated immediately prior to treatment
From the text: as §1, §2, §3

Wild Buckwheat = settings: Table III, 2 WAT
From the text: as §1, §2, §3

Velvetleaf = system: Velvetleaf
From the text: as §1, §2, §3

Rice = settings: Table III, 2 WAT
From the text: as §1, §2, §3

Soybean = settings: Table III, 2 WAT
From the text: as §1, §2, §3

Common Lambsquarters = system: Common Lambsquarters
From the text: as §1, §2, §3

Johnsongrass = settings: Table II, formulated immediately prior to treatment
From the text: as §1, §2, §3

Barnyardgrass = system: Barnyardgrass
From the text: as §1, §2, §3

Large Crabgrass = settings: Table III, 2 WAT
From the text: as §1, §2, §3

Yellow Nutsedge = settings: Table II, formulated immediately prior to treatment
From the text: as §1, §2, §3

Sugar Beet = settings: Table III, 2 WAT
From the text: as §1, §2, §3

Morningglory = system: Morningglory
From the text: as §1, §2, §3

[1] = Table II, 2 WAT, 5.6 kg/h, formulated immediately prior to treatment
[2] = Table II, 2 WAT, 11.2 kg/h, formulated immediately prior to treatment
[3] = Table II, 4 WAT, 5.6 kg/h, formulated immediately prior to treatment
[4] = Table II, 4 WAT, 11.2 kg/h, formulated immediately prior to treatment

CC(C)OC(=O)CNCP(=O)(O)O[Si](c1ccccc1)(c1ccccc1)C(C)(C)C [Ex. 2, Glycine, N((([(1,1-Dimethylethyl)Diphenylsilyl]oxy)-Hydroxyphosphinyl)-, methyl)-, 1-Methylethyl Ester]
4 (100% inhibition): Plant Response Index (H) (Quackgrass; 4 WAT, 11.2 kg/h) | Plant Response Index (F) (Pennsylvania Smartweed; [2]) | Plant Response Index (F) (Pennsylvania Smartweed; [3]) | Plant Response Index (F) (Pennsylvania Smartweed; [4])
1 (25-49% inhibition): Plant Response Index (A) (Canada Thistle; 2 WAT, 11.2 kg/h) | Plant Response Index (A) (Canada Thistle; 4 WAT, 11.2 kg/h) | Plant Response Index (K) (Barnyardgrass; Table III, 2 WAT, 1.1 kg/h)
3 (75-99% inhibition): Plant Response Index (B) (Cocklebur; [2]) | Plant Response Index (B) (Cocklebur; [4]) | Plant Response Index (B) (Cocklebur; Table III, 2 WAT, 5.6 kg/h) | Plant Response Index (H) (Quackgrass; 2 WAT, 5.6 kg/h) | Plant Response Index (H) (Quackgrass; 2 WAT, 11.2 kg/h) | Plant Response Index (H) (Quackgrass; 4 WAT, 5.6 kg/h) | Plant Response Index (S) (Panicum Spp; 5.6 kg/h) | Plant Response Index (F) (Pennsylvania Smartweed; [1]) | Plant Response Index (F) (Pennsylvania Smartweed; Table III, 2 WAT, 1.1 kg/h) | Plant Response Index (F) (Pennsylvania Smartweed; Table III, 2 WAT, 5.6 kg/h) | Plant Response Index (J) (Downy Brome; [2]) | Plant Response Index (J) (Downy Brome; [4]) | Plant Response Index (J) (Downy Brome; Table III, 2 WAT, 5.6 kg/h) | Plant Response Index (R) (Hemp Sesbania; 5.6 kg/h) | Plant Response Index (A) (Canada Thistle; 2 WAT, 5.6 kg/h) | Plant Response Index (A) (Canada Thistle; 4 WAT, 5.6 kg/h) | Plant Response Index (Q) (Wild Buckwheat; 5.6 kg/h) | Plant Response Index (C) (Velvetleaf; [2]) | Plant Response Index (C) (Velvetleaf; [4]) | Plant Response Index (C) (Velvetleaf; Table III, 2 WAT, 5.6 kg/h) | Plant Response Index (O) (Rice; 5.6 kg/h) | Plant Response Index (E) (Common Lambsquarters; [1]) | Plant Response Index (E) (Common Lambsquarters; [2]) | Plant Response Index (E) (Common Lambsquarters; [4]) | Plant Response Index (E) (Common Lambsquarters; Table III, 2 WAT, 1.1 kg/h) | Plant Response Index (E) (Common Lambsquarters; Table III, 2 WAT, 5.6 kg/h) | Plant Response Index (I) (Johnsongrass; 2 WAT, 5.6 kg/h) | Plant Response Index (I) (Johnsongrass; 2 WAT, 11.2 kg/h) | Plant Response Index (I) (Johnsongrass; 4 WAT, 5.6 kg/h) | Plant Response Index (I) (Johnsongrass; 4 WAT, 11.2 kg/h) | Plant Response Index (K) (Barnyardgrass; [1]) | Plant Response Index (K) (Barnyardgrass; [2]) | Plant Response Index (K) (Barnyardgrass; [3]) | Plant Response Index (K) (Barnyardgrass; [4]) | Plant Response Index (K) (Barnyardgrass; Table III, 2 WAT, 5.6 kg/h) | Plant Response Index (T) (Large Crabgrass; 5.6 kg/h) | Plant Response Index (G) (Yellow Nutsedge; 4 WAT, 5.6 kg/h) | Plant Response Index (D) (Morningglory; [2]) | Plant Response Index (D) (Morningglory; [4]) | Plant Response Index (D) (Morningglory; Table III, 2 WAT, 5.6 kg/h)
2 (50-74% inhibition): Plant Response Index (B) (Cocklebur; [1]) | Plant Response Index (B) (Cocklebur; [3]) | Plant Response Index (J) (Downy Brome; [1]) | Plant Response Index (J) (Downy Brome; [3]) | Plant Response Index (C) (Velvetleaf; [1]) | Plant Response Index (C) (Velvetleaf; [3]) | Plant Response Index (L) (Soybean; 5.6 kg/h) | Plant Response Index (E) (Common Lambsquarters; [3]) | Plant Response Index (T) (Large Crabgrass; 1.1 kg/h) | Plant Response Index (G) (Yellow Nutsedge; 2 WAT, 5.6 kg/h) | Plant Response Index (G) (Yellow Nutsedge; 2 WAT, 11.2 kg/h) | Plant Response Index (G) (Yellow Nutsedge; 4 WAT, 11.2 kg/h) | Plant Response Index (M) (Sugar Beet; 5.6 kg/h) | Plant Response Index (D) (Morningglory; [1]) | Plant Response Index (D) (Morningglory; [3])
0 (0-24% inhibition): Plant Response Index (B) (Cocklebur; Table III, 2 WAT, 1.1 kg/h) | Plant Response Index (S) (Panicum Spp; 1.1 kg/h) | Plant Response Index (J) (Downy Brome; Table III, 2 WAT, 1.1 kg/h) | Plant Response Index (R) (Hemp Sesbania; 1.1 kg/h) | Plant Response Index (Q) (Wild Buckwheat; 1.1 kg/h) | Plant Response Index (C) (Velvetleaf; Table III, 2 WAT, 1.1 kg/h) | Plant Response Index (O) (Rice; 1.1 kg/h) | Plant Response Index (L) (Soybean; 1.1 kg/h) | Plant Response Index (M) (Sugar Beet; 1.1 kg/h) | Plant Response Index (D) (Morningglory; Table III, 2 WAT, 1.1 kg/h)
